From the pKa sets of Baltruschat and Czodrowski (2020)

Settings: acidic group

SMILES | pKa
Oc1cccc2ncccc12 | 8.54
c1ccc(-c2c[nH]c(-c3ccccc3)n2)cc1 | 12.6
O=[N+]([O-])c1cccc(S(=O)(=O)O)c1 | -7.1
O[n+]1c2ccccc2nc2ccccc21 | 1.12
S=C(Nc1ccccc1)c1ccc(Cl)cc1 | 10.8
CC(C)c1cccc(=O)c(O)c1 | 7.22
C[N+](C)(C)CCc1cccc(O)c1 | 9.43
CC(=O)[n+]1cccc(C)c1 | 5.81
O=C1NCc2[nH]cnc2N1 | 11.5
CC(=O)Nc1ccc(O)cc1 | 9.5
CCOc1cccc[n+]1O | 1.18
CC(=O)[n+]1ccc(C#N)cc1 | 1.98
Oc1cccc2nnccc12 | 7.4
CC(C)CCOc1ccccc1/C=C\C(=O)O | 4.38
CCOC(=O)c1c[nH+]c2cc([N+](=O)[O-])ccc2c1O | 4.1
C[n+]1ccccc1O | 0.32
O=c1ccccc(O)c1O | 6.72
Oc1ccccc1/C=N/c1ncc2nc[nH]c2n1 | 9.19
Cc1ccccc1C[N+](=O)[O-] | 7.6
CC1(C)CC(=O)C2=C(C1)NC1=C(C2)C(=O)CC(C)(C)C1 | 3.6
COc1ccc([C@H]2C[C@@H]2C(=O)O)cc1 | 4.62
CCCc1cc(Cl)cc(Cl)c1O | 8.1
c1nc2cc3c(cc2[nH]1)CCCC3 | 13.3
c1ccc(Nc2nnn[nH]2)cc1 | 6.3

SMILES | pKa
COc1ccc(B(O)O)cc1 | 9.32
Oc1ccccc1CN1CCOCC1 | 10.3
O=C([O-])c1cc2ccccc2cc1O | 12.2
CN(C)S(=O)(=O)c1ccc(NS(=O)(=O)c2ccc(N)cc2)cc1 | 6.23
Cc1cc(O)nn1-c1ccccc1C(=O)[O-] | 12.2
Oc1ccc(/N=N/c2nc3ccccc3s2)c2cccnc12 | 7.2
Cc1ccc(S(N)(=O)=O)cc1C | 9.62
O=C(O)Cc1nnnn1-c1ccccc1 | 3.1
C=CCC1(C2=CCCCC2)C(=O)[N-]C(=S)NC1=O | 11.7
O=C(O)CSCc1ccccc1 | 3.73
Cn1c(N)nc2nc[nH]c2c1=O | 10.4
CC(=O)[C@H]1CC=CC[C@@H]1C(=O)O | 4.4
Cc1ccc(C)c(C(=O)O)c1 | 3.97
O=C1Oc2ccccc2C(=O)C1CC1C(=O)Oc2ccccc2C1=O (configuration not stated) | 5.5
O=CCCCC(=O)O | 5.02
Cc1ccc(C(=O)C[S+](C)C)cc1 | 8.9
NS(=O)(=O)c1ccc(C(=O)O)cc1 | 3.53
FC(F)(F)c1cccc(NC=S)c1 | 10.8
CS(=O)(=O)c1ccc(S(=O)(=O)NCc2ccccc2)cc1 | 10.2
C/C(=N\O)C(=O)NO | 7.74
CC(C)(C(=O)O)c1nnnn1C1CCCCC1 | 3.7
O/N=C(/Cc1ccccc1)NO | 10.7
Cc1ccccc1-c1nnn[nH]1 | 4.09
C[Si](C)(C)C#CC(=O)O | 2.21

SMILES | pKa
Cc1ccnc2c(O)cccc12 | 8.44
O=CNOC(=O)/C=C/c1ccccc1 | 5.9
COC(=O)C[C@@H]1[C@@H](C(=O)O)[NH2+]C[C@H]1C(C)O (some centres not stated) | 2.4
NC(=O)Nc1ccc([N+](=O)[O-])cc1 | 14
O=C(O)CCCOC(=O)CCCBr | 4.6
O=c1cccc([O-])cc1O | 9.52
CC(=N\O)/C(CN(C)C)=N\O | 10.6
O=S(O)CCCc1ccccc1 | 2.05
Cc1ccc(S(=O)(=O)N[C@@H](CCC(N)=O)C(=O)[O-])cc1 | 11.8
NC(=O)C1CN2CCC1CC2 (configuration not stated) | 9.74
C[C@@]12CC(=O)N[C@]1(CCC(=O)O)C(=O)NC2=O | 4.4
Oc1cccc(O)c1 | 9.56
N#CC(c1ccc(Cl)cc1)c1ccc([N+](=O)[O-])cc1 (configuration not stated) | 10.7
COc1cccc2c1-c1c(O)cccc1-2 | 9.15
c1coc(CSc2ncnc3nc[nH]c23)c1 | 8.42
[NH3+]CCCC(=O)O | 4.06
CCCCCc1c(-c2ccccc2)n[nH]c1O | 8.4
OCc1nc2ncncc2[nH]1 | 8.79
N#CC(CC(=O)O)c1ccccc1 (configuration not stated) | 3.79
CC1C(=O)c2ccccc2C1=O | 6.17
C=C(C)/C=C(\O)C=C(C)C | 10.8
CCC(CC)C(=O)O | 4.73

Same assay, conditions: basic group

SMILES | pKa
Nc1ccc2[nH]ncc2c1 | 5.15
Oc1cccc2ncccc12 | 5.2
[S-]c1ccccn1 | 9.89
NCCCCCC(=O)[O-] | 10.8
CCc1cc(-c2ccccc2)nnc1NCCN1CCOCC1 | 7.08
CSc1nc(N)n[nH]1 | 3.27
CCN(CC)CCC(C)=O | 9.25
NC(=S)NCc1ccccc1 | 0.86
CCCc1ccc([C@@H]2CCC[NH+]2C)cn1 | 3.65
CCc1nc2cc3c(cc2[nH]1)CCCC3 | 6.64
Oc1cccc2nnccc12 | 1.92
CCOc1ccc2nc(/C=C/c3ccccc3)cc(N)c2c1 | 9.5
C[C@@H]1CNC[C@H](C)[NH2+]1 | 5.4
CCNC(=O)C1CCCCN1 (configuration not stated) | 8.6
COc1ccccn1 | 3.34
c1c[nH]c(P(c2ncc[nH]2)c2ncc[nH]2)n1 | 7.44
C=C(C)C(=O)OCCN(C)C | 8.06
